Results on four molecules are retold here after patent US12325736B2, “Transduced T cells expressing human SSTR2 and application thereof” (Cornell University, priority 2016, dated 2025).

Data set [1] can be described thus: PET/CT DOTATOC uptake in lungs, 8505C mouse model and controls. The data set is classed as in vivo, NSG mice. Particulars: NSG. The procedure:
1×10^6 8505c-FLuc^+GFP^+cells were injected into NSG mice via tail vein. 2-3×10^6 primary human T cells were injected via tail vein 7-15 days after tumor cell injection. Luminescence imaging of tumor xenografts in live mice was performed using a whole body optical imager (In-Vivo Extreme 4MP, Bruker). Mice were first anesthetized with 3% isoflurane at 2 L/min O2 and subsequent to this, maintained at 2% isoflurane at 2 L/min O2. Growth or reduction in tumor burden was estimated by integration of luminescence over the lungs or the entire mouse body. Ex-vivo fluorescence imaging of mouse liver, lungs, spleen and resected tumors were performed using a whole body optical imager (In-Vivo F Pro, Bruker).
(§1) Projection data was acquired in a cone-beam geometry with approximately […] steps at 1 degree angular increments. At least 10 million coincidence events were acquired for PET per study using a 250 to 750 keV energy window and a 6 ns timing window. […] To compute DOTATOC uptake by Jurkat tumors, the ellipsoidal ROIs (Amide) were placed to enclose subcutaneous tumors that closely match overall tumor size and shape. For systemic 8505C tumor models, ellipsoids were drawn separately on the left and right sides of lungs to enclose much of five lobes of mouse lungs. The % ID/cm^3 values, computed relative to the counts in a reference tube, can be approximated to a standard uptake value (SUV^61) by dividing % ID/cm^3 by four, assuming injection efficiency of 100% and 25 g of body weight. Visualization and analyses of PET/CT images were performed using Amide (amide.sourceforge.net).

Data set [2] in a line: PET/CT DOTATOC uptake by subcutaneous Jurkat T cell xenografts (0-100% SSTR2+). The class given is in vivo, NSG mice. The conditions noted are these: NSG (NOD/LtSz Prkdc^scid Il2rg^tm1Wjl/J), mouse, subcutaneous Jurkat tumor xenograft. The procedure:
All animal experiments were performed in strict accordance with the recommendations in the Guide for the Care and Use of Laboratory Animals of the National Institutes of Health. This study's animal protocol was approved by the Institutional Laboratory Animal Use and Care Committee of Weill Cornell Medicine. SSTR2 expressing Jurkats were spiked with increasing numbers of non-transduced Jurkats to derive distinct cultures containing defined percentages of SSTR2 expression ranging from 100-0%. For each subcutaneous xenograft, 5×10^6 total cells were resuspended in 100 μl Matrigel Basement Membrane Matrix (Corning) and injected bilaterally into nonobese diabetic (NOD)/LtSz Prkdc^scid I12rg^tm1Wj1/J (NSG) mice (Jackson Laboratory). Measurements of tumor size were made using an external digital caliper. Tumor volume was calculated by using the modified ellipsoid formula 1/2(Length×Width^2). Length was measured as the longer dimension. Each dimensional measurement was rounded to the nearest 0.5 cm.
as §1

In the next data set the target is SSTR2 (Homo sapiens, UniProt P30874). The data set can be described thus: Octreotide-induced SSTR2 internalization in SSTR2-transduced Jurkat T cells by flow cytometry. The class given is cell-based. The conditions noted are these: 1 μM octreotide, 30 min, 37° C. As for the experimental part: SSTR2-transduced Jurkat T cells were incubated with or without octreotide, 1 μM (Sigma) for 30 min at 37° C. Subsequent internalization of SSTR2 was measured by flow cytometry analysis of SSTR2 expression. […] Values obtained were used for Scatchard analysis to estimate affinity and site density.

For a further data set, the target named is ICAM-1 (Homo sapiens, UniProt P05362). The data set can be described thus: SPR measurement of LFA-1 I domain affinity to ICAM-1. The data set is classed as binding. (In general: In SPR one partner is held on a chip, and binding of the other changes the refractive index at the surface.)

Changes are numbered by the printed parent chain. Names may count otherwise.

ICAM-1, sequence (P05362 28-532): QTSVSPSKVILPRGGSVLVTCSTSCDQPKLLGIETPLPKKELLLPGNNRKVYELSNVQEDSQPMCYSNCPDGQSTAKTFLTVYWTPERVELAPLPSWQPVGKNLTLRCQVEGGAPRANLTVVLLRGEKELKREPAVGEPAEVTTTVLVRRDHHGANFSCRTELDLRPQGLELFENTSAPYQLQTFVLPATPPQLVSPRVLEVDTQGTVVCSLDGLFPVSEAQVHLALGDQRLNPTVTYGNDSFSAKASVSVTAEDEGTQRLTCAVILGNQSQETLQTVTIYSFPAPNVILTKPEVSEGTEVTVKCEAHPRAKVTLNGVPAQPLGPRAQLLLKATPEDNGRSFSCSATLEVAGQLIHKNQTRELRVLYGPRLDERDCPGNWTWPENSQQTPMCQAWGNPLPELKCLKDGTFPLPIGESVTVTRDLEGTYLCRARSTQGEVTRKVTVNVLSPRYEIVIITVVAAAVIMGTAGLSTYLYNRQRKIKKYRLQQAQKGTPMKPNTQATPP
SSTR2, sequence (P30874 whole entry): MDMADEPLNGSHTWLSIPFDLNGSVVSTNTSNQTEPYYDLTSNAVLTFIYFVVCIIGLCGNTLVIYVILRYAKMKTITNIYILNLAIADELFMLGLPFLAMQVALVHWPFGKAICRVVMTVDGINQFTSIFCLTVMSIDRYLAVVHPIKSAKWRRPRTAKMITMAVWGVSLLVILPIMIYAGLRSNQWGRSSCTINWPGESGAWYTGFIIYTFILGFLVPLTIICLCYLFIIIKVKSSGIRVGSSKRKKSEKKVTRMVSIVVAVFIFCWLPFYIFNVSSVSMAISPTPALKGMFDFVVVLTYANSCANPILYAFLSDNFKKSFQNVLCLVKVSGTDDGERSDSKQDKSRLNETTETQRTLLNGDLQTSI
Source text for ICAM-1: Affinity is first measured by surface plasmon resonance (e.g., Biacore) to assess 1.1 binding affinity between I domain and ICAM-1.

As to `C[C@@H](O)[C@@H]1NC(=O)[C@H](CCCCN)NC(=O)[C@@H](Cc2c[nH]c3ccccc23)NC(=O)[C@H](Cc2ccc(O)cc2)NC(=O)[C@@H](NC(=O)[C@@H](Cc2ccccc2)NC(=O)CN2CCN(CC(=O)O)CCN(CC(=O)O)CCN(CC(=O)O)CC2)CSSC[C@@H](C(=O)N[C@H](CO)[C@@H](C)O)NC1=O` [DOTATOC, 1,4,7,10-tetraazacyclododecane-N^I,N^II,N^III,N^IIII-tetraacetic acid (D)-Phe^1-Tyr^3-octreotide], the tissue uptake per volume was 1 %ID/mL in data set [1] (lungs, DOTATOC uptake in the lungs, mice treated with RR T cells); 0.7 %ID/mL in data set [1] (lungs, DOTATOC uptake, mice with no tumors infused with SS T cells); 1.3 ± 0.5 %ID/mL in data set [1] (thoracic cavity, non-specific DOTATOC uptake in the thoracic cavity, high tumor burden, 23-27 days post-tumor xenograft, no T cells or SS T cells); 0.6 to 0.8 %ID/mL in data set [2] (Jurkat tumors containing 0% SSTR2+ cells); 0.44 ± 0.2 %ID/mL in data set [2] (tumors below 65 mm^3, 0% SSTR2+); 0.64 ± 0.4 %ID/mL in data set [2] (tumors below 65 mm^3, 1% SSTR2+). Also, the tissue uptake per volume in data set [2] (tumors below 65 mm^3, 10% SSTR2+) is 0.83 ± 0.5 %ID/mL; in data set [2] (tumors below 65 mm^3, 100% SSTR2+) it was 3.4 ± 1.7 %ID/mL; in data set [2] (tumors larger than 65 mm^3, 0% SSTR2+) it was 0.8 ± 0.35 %ID/mL; in data set [2] (tumors larger than 65 mm^3, 0.1% SSTR2+), 1.1 ± 0.51 %ID/mL; in data set [2] (tumors larger than 65 mm^3, 1% SSTR2+), 2 ± 0.77 %ID/mL; in data set [2] (tumors larger than 65 mm^3, 10% SSTR2+), 2.8 ± 1.1 %ID/mL. The same molecule gave a tissue uptake per volume in data set [2] (tumors larger than 65 mm^3, 100% SSTR2+) of 7.1 ± 2.3 %ID/mL.

For the molecule `C[C@@H](O)[C@@H]1NC(=O)[C@H](CCCCN)NC(=O)[C@@H](Cc2c[nH]c3ccccc23)NC(=O)[C@H](Cc2ccccc2)NC(=O)[C@@H](NC(=O)[C@H](N)Cc2ccccc2)CSSC[C@@H](C(=O)N[C@H](CO)[C@@H](C)O)NC1=O` [octreotide], on SSTR2, the “surface expression of SSTR2 (antibody binding)” value is on record as “reduced surface expression of SSTR2”.

B1: F292G: LFA-1 I domain mutant F292G, G128-G311 of SEQ ID NO: 1 (protein, listed as Homo sapiens)
chain: GNVDLVFLFDGSMSLQPDEFQKILDFMKDVMKKLSNTSYQFAAVQFSTSYKTEFDFSDYVKWKDPDALLKHVKHMLLLTNTFGAINYVATEVFREELGARPDATKVLIIITDGEATDSGNIDAAKDIIRYIIGIGKHFQTKESQETLHKFASKPASEFVKILDTGEKLKDLFTELQKKIYVIEG
The term Kd denotes a measure of binding affinity in units of concentration. A higher Kd goes with weaker binding. In the data set with ICAM-1 (SPR measurements, I domain to ICAM-1), B1 had a Kd of 100 nM.

B2: F265S/F292G (DM): LFA-1 I domain double mutant F265S/F292G, G128-G311 of SEQ ID NO: 1 (protein, listed as Homo sapiens)
chain: B1 chain with F138S
B2: the “affinity higher than the wild-type (WT) I domain” value with ICAM-1 (vs WT KD=1.5 mM) was “approximately 200,000 fold”.
